Experimental data published in ChEMBL document CHEMBL1157499, “Synthesis and biological evaluation of 1-(benzenesulfonamido)-2-[5-(N-hydroxypyridin-2(1H)-one)]acetylene regioisomers: a novel class of 5-lipoxygenase inhibitors” (Bioorg Med Chem Lett, 2008).
The source made the active and inactive calls. The calls are words filed in the database; no cut-off is given here.

Tested on: Rattus norvegicus
Test: Antiinflammatory activity against carrageenan-induced paw edema in po dosed rat after 3 hrs
Assay type: functional

## NS(=O)(=O)c1ccc(C#Cc2ccc(=O)n(O)c2)cc1
  Activity: inactive

## NS(=O)(=O)c1cccc(C#Cc2ccc(=O)n(O)c2)c1
  Activity: inactive

## NS(=O)(=O)c1ccccc1C#Cc1ccc(=O)n(O)c1
  ED50: 86 mg/kg
